Reference: ChEMBL document CHEMBL4507268 (2021)

Assays:
[1] = target: Histamine H4 receptor (Homo sapiens) (UniProt Q9H3N8); conditions: Compound concentration 10.0 uM
[2] = target: Serine/threonine-protein kinase tousled-like 2 (Homo sapiens) (UniProt Q86UE8); conditions: Compound concentration 1000.0 nM
[3] = test system: Phosphatidylinositol 4,5-bisphosphate 3-kinase catalytic subunit alpha isoform (Homo sapiens), P42336 [E542K]; conditions: Compound concentration 1000.0 nM
[4] = target: Fibroblast growth factor receptor 1 (Homo sapiens) (UniProt P11362); conditions: Compound concentration 1000.0 nM
[5] = target: GABA-A receptor; anion channel (Rattus norvegicus) (UniProt O09028+P15431+P18506+P18508+P19969+P20236+P23574+P23576+P28471+P28473+P30191+P62813+P63079+P63138+Q91ZM7+Q9ES14); conditions: Compound concentration 10.0 uM
[6] = target: T1, MAP/microtubule affinity-regulating kinase 4 (Homo sapiens) (UniProt Q96L34); conditions: Compound concentration 1000.0 nM
T1 sequence (whole entry): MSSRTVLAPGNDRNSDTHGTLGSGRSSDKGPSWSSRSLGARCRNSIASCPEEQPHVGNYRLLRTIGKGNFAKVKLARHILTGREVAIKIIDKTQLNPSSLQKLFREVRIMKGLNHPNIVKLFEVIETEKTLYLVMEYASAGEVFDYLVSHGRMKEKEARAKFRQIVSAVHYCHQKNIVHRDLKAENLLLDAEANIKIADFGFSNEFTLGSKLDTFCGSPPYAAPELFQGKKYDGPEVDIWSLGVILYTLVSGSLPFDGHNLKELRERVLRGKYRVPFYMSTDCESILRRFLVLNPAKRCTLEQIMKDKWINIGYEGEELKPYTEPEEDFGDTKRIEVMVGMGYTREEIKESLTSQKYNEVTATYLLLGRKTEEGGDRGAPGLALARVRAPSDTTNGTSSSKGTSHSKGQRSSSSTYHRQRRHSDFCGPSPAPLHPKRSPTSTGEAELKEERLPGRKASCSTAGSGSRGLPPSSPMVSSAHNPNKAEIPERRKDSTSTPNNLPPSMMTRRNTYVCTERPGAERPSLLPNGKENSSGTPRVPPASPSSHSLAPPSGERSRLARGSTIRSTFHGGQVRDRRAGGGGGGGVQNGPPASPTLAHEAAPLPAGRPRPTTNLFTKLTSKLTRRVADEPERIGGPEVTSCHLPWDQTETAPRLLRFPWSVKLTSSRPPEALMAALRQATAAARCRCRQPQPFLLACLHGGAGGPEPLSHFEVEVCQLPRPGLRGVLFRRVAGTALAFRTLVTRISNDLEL

[7] = target: Histamine H3 receptor (Homo sapiens) (UniProt Q9Y5N1); conditions: Compound concentration 10.0 uM
[8] = target: Cyclin-dependent kinase 5 (Homo sapiens) (UniProt Q00535); conditions: Compound concentration 1000.0 nM
[9] = target: Protein kinase C eta type (Homo sapiens) (UniProt P24723); conditions: Compound concentration 1000.0 nM
[10] = target: Fibroblast growth factor receptor 2 (Homo sapiens) (UniProt P21802); conditions: Compound concentration 1000.0 nM
[11] = target: LIM domain kinase 1 (Homo sapiens) (UniProt P53667); conditions: Compound concentration 1000.0 nM
[12] = target: Megakaryocyte-associated tyrosine-protein kinase (Homo sapiens) (UniProt P42679); conditions: Compound concentration 1000.0 nM
[13] = target: 5-hydroxytryptamine receptor 1E (Homo sapiens) (UniProt P28566); conditions: Compound concentration 10.0 uM
[14] = target: Serine/threonine-protein kinase Nek10 (Homo sapiens) (UniProt Q6ZWH5); conditions: Compound concentration 1000.0 nM
[15] = target: Homeodomain-interacting protein kinase 3 (Homo sapiens) (UniProt Q9H422); conditions: Compound concentration 1000.0 nM
[16] = target: T2, NUAK family SNF1-like kinase 1 (Homo sapiens) (UniProt O60285); conditions: Compound concentration 1000.0 nM
T2 sequence (whole entry): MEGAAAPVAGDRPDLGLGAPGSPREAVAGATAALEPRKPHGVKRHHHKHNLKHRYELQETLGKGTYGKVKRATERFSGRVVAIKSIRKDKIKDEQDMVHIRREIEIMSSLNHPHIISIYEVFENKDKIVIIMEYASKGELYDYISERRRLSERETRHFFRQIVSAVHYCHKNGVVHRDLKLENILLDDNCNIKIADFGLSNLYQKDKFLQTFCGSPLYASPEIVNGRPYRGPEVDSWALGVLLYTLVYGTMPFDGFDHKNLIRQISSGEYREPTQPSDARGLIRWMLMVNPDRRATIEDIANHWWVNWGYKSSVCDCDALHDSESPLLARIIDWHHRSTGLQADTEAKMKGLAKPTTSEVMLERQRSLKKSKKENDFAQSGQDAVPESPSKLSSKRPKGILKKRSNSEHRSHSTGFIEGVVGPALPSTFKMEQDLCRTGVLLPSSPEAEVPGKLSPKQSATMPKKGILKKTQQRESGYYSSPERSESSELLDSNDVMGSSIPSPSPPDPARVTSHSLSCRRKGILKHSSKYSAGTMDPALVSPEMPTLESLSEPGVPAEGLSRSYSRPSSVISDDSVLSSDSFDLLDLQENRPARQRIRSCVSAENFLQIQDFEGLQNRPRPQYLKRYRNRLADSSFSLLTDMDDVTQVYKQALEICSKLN

Chain of LIM domain kinase 1 (Homo sapiens) (P53667 whole entry, looked up, the tested form may be a part): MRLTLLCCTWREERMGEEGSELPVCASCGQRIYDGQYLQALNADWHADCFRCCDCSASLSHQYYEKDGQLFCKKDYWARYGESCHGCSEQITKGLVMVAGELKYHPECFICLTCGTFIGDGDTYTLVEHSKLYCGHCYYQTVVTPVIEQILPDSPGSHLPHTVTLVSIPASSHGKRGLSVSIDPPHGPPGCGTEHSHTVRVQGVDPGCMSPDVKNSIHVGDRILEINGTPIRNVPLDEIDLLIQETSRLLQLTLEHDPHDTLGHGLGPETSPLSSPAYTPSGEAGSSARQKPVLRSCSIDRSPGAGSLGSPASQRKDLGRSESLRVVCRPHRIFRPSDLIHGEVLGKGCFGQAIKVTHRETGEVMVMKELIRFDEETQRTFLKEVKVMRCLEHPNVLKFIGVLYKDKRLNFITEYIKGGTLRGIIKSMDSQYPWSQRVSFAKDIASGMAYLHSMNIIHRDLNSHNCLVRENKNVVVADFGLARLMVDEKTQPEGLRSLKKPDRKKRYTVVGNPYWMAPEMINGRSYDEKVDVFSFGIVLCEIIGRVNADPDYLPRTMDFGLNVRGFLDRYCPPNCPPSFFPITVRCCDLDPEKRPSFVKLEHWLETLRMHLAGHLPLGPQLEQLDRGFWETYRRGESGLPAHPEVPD
Chain of Histamine H3 receptor (Homo sapiens) (Q9Y5N1 whole entry): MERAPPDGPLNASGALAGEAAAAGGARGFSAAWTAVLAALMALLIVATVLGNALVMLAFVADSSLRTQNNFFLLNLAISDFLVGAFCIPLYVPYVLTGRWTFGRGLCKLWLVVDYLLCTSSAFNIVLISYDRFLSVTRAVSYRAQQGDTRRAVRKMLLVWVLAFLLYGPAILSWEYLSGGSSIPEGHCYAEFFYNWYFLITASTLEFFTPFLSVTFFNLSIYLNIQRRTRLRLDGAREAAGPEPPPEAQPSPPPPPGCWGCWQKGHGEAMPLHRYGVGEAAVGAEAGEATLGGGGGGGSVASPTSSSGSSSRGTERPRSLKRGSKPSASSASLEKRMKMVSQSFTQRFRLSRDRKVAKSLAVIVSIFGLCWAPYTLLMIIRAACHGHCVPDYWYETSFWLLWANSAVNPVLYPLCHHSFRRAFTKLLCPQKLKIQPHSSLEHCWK
Chain of Serine/threonine-protein kinase Nek10 (Homo sapiens) (Q6ZWH5 whole entry): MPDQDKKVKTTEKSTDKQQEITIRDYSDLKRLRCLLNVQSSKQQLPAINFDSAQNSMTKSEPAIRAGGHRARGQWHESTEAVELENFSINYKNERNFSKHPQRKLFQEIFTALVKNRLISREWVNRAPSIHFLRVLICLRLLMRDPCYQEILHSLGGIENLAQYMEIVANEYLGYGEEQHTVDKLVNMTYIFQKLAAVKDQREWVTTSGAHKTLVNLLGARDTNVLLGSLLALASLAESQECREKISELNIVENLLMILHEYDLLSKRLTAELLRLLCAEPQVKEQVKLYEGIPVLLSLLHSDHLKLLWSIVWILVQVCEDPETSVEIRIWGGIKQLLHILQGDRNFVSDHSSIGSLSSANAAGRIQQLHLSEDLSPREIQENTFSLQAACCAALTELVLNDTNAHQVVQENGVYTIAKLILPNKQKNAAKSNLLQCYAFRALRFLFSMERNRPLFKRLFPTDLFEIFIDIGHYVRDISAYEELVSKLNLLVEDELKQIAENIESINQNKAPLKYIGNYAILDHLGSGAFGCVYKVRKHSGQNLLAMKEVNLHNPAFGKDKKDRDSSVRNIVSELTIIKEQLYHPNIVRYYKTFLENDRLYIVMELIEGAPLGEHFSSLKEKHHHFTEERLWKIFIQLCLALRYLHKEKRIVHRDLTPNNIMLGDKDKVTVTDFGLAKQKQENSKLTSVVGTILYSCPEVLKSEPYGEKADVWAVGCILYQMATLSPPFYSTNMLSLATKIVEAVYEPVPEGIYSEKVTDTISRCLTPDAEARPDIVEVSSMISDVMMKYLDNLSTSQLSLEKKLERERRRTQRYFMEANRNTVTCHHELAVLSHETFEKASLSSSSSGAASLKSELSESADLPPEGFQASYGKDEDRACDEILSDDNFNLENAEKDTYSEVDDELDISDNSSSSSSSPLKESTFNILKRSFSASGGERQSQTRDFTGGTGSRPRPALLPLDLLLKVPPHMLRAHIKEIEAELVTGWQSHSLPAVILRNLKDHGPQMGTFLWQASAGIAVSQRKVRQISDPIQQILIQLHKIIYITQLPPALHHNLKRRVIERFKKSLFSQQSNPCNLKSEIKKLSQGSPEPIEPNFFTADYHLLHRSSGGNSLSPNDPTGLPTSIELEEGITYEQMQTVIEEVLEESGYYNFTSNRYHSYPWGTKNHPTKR
Chain of Homeodomain-interacting protein kinase 3 (Homo sapiens) (Q9H422 whole entry, looked up): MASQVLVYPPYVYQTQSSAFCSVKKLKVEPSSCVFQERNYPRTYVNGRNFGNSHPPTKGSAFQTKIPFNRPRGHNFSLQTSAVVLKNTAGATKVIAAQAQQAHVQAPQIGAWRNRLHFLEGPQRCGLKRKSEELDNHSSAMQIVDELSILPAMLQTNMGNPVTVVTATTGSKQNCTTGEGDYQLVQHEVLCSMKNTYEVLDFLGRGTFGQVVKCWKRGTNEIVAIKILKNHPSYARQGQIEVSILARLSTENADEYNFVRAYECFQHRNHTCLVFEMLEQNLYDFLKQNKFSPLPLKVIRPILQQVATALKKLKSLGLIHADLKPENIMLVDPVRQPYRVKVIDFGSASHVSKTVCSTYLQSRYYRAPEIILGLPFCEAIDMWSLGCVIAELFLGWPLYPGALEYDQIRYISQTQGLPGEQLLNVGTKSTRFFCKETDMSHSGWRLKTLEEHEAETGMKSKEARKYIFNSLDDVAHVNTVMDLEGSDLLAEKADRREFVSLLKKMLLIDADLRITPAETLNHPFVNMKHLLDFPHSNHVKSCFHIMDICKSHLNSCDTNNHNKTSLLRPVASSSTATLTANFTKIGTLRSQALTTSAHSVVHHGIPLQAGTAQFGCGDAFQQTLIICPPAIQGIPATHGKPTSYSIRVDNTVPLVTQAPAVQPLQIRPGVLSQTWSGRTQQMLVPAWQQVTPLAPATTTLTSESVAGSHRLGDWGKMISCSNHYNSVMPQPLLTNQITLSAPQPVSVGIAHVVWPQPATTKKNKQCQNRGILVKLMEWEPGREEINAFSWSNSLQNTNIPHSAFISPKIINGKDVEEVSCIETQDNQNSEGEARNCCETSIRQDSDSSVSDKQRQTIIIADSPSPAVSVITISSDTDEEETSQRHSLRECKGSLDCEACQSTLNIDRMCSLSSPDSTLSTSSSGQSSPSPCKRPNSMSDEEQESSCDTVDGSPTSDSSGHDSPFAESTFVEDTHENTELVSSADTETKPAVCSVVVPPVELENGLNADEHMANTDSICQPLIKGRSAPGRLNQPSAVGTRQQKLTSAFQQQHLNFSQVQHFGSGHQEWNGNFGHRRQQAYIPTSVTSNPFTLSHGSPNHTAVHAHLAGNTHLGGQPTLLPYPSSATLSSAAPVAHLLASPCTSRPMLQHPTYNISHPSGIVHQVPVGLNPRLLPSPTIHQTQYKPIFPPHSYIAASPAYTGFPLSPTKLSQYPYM
Chain of Cyclin-dependent kinase 5 (Homo sapiens) (Q00535 whole entry, looked up): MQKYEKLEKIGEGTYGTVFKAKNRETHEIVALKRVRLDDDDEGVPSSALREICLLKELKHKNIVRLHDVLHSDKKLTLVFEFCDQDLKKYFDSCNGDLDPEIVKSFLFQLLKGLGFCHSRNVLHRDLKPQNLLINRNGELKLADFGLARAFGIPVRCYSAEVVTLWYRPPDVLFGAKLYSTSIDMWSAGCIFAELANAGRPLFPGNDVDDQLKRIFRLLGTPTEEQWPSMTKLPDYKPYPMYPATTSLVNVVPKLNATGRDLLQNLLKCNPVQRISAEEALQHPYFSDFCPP
Chain of Histamine H4 receptor (Homo sapiens) (Q9H3N8 whole entry): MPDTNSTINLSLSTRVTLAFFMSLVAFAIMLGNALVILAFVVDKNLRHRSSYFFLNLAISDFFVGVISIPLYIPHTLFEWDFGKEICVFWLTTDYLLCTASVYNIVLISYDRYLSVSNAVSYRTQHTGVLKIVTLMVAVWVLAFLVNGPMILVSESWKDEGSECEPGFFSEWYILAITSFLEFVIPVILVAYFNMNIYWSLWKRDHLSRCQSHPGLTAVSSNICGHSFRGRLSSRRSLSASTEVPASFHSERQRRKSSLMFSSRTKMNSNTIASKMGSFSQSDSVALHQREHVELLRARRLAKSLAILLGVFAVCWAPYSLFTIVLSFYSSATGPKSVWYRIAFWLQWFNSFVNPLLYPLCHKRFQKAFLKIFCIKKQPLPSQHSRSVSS
Chain of Fibroblast growth factor receptor 1 (Homo sapiens) (P11362 22-822 limits assumed): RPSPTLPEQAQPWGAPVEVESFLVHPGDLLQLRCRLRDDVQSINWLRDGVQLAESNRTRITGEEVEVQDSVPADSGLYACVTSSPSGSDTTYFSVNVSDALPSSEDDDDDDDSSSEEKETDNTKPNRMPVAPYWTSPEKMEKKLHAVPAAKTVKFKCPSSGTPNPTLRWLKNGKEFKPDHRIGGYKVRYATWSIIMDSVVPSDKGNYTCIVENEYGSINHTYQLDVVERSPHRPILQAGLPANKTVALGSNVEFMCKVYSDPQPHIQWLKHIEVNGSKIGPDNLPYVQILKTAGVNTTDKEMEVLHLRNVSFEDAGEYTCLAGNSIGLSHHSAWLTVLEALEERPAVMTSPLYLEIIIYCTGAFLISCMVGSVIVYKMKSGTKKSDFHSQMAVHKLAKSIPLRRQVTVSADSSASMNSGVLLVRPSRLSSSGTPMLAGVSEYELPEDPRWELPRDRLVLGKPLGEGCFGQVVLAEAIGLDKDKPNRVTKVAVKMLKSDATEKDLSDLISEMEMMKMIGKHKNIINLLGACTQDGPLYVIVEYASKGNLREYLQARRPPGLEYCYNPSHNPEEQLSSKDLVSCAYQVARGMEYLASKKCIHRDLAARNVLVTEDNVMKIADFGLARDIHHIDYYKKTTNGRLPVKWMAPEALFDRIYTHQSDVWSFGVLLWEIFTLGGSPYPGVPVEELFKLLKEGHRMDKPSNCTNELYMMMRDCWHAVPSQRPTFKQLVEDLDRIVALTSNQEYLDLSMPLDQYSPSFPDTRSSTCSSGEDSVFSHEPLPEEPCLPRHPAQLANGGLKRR

Cc1nc(C2CCN(C(=O)c3ccc(OC(F)(F)F)cc3N)CC2)c2ncc(N3CCN(C)CC3)cc2n1 [BAY-693]
inactive: inhibition [1] -5.28% | residual activity [2] 100% | residual activity [3] 92% | residual activity [4] 100% | inhibition [5] -1.64% | residual activity [6] 100% | inhibition [7] 38.4% | residual activity [8] 88% | residual activity [9] 88% | residual activity [10] 100% | residual activity [11] 93% | residual activity [12] 100% | inhibition [13] -9.94% | residual activity [14] 100% | residual activity [15] 96% | residual activity [16] 95%

CN1CCN(c2cnc3c(C4CCN(C(=O)c5ccc(OC(F)(F)F)cc5N)CC4)ncnc3c2)CC1 [BAY-885]
inactive: inhibition [1] -1.34% | residual activity [2] 89% | residual activity [3] 100% | residual activity [4] 100% | inhibition [5] 0.38% | residual activity [6] 100% | inhibition [7] 36.9% | residual activity [8] 87% | residual activity [9] 86% | residual activity [10] 100% | residual activity [11] 100% | residual activity [12] 100% | inhibition [13] 14.2% | residual activity [14] 100% | residual activity [15] 100% | residual activity [16] 100%
